Target: T1, Tyrosine-protein phosphatase non-receptor type 1 (Homo sapiens, UniProt P18031)
T1 sequence (P18031 whole entry): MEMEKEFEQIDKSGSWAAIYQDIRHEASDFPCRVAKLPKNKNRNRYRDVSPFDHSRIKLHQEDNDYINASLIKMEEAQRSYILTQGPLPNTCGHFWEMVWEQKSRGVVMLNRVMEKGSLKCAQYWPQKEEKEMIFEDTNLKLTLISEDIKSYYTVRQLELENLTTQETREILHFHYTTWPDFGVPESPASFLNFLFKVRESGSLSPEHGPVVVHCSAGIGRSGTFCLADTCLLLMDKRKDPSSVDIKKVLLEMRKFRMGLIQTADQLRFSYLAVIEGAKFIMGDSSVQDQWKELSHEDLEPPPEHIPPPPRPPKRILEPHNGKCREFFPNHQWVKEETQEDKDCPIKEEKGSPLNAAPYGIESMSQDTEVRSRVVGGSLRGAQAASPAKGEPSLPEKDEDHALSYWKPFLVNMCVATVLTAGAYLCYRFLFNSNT
Experiment: Inhibition of human recombinant PTP1B

Ki [µM] | SMILES
0.013 | O=C(O)COc1c(C(=O)O)sc(-c2cccc(OCC3CCN(C(=O)Nc4ccccc4)CC3)c2)c1Br
0.038 | O=C(O)COc1c(C(=O)O)sc(-c2cccc(NC3CCN(S(=O)(=O)Cc4ccc(Cl)cc4)CC3)c2)c1Br
0.006 | O=C(O)COc1c(C(=O)O)sc(-c2cccc(NC3CCN(S(=O)(=O)Cc4ccccc4C(F)(F)F)CC3)c2)c1Br
0.006 | Cc1cccc(C)c1CS(=O)(=O)N1CCC(Nc2cccc(-c3sc(C(=O)O)c(OCC(=O)O)c3Br)c2)CC1
0.003 | Cc1cccc(C)c1NC(=O)N1CCC(CNc2cccc(-c3sc(C(=O)O)c(OCC(=O)O)c3Br)c2)CC1
1.7 | Nc1cccc(-c2sc(C(=O)O)c(OCC(=O)O)c2Br)c1
2 | CCC(=O)Nc1cccc(-c2sc(C(=O)O)c(OCC(=O)O)c2Br)c1
2 | COC(=O)Nc1cccc(-c2sc(C(=O)O)c(OCC(=O)O)c2Br)c1
0.2 | O=C(O)COc1c(C(=O)O)sc(-c2cccc(NCC3CCCCC3)c2)c1Br
0.12 | O=C(O)COc1c(C(=O)O)sc(-c2cccc(NC3CCCCCC3)c2)c1Br
0.008 | Cc1c(-c2cccc(NC3CCN(S(=O)(=O)Cc4ccccc4)CC3)c2)sc(C(=O)O)c1OCC(=O)O
0.00068 | O=C(O)COc1c(C(=O)O)sc(-c2cccc(NC3CCN(S(=O)(=O)Cc4ccccc4)CC3)c2)c1Cl
0.024 | O=C(O)COc1c(C(=O)O)sc(-c2cccc(OC3CCN(S(=O)(=O)Cc4ccccc4)CC3)c2)c1Br
0.01 | O=C(O)COc1c(C(=O)O)sc(-c2cccc(NC3CCN(S(=O)(=O)Cc4cccc(Cl)c4)CC3)c2)c1Br
0.39 | O=C(O)COc1c(C(=O)O)sc(-c2cccc(NC3CCCC3)c2)c1Br
0.001 | CS(=O)(=O)Nc1ccccc1CS(=O)(=O)N1CCC(Nc2cccc(-c3sc(C(=O)O)c(OCC(=O)O)c3Br)c2)CC1
0.3 | O=C(O)COc1c(C(=O)O)sc(-c2cccc(NC3CCN(C(=O)NCc4ccccc4)CC3)c2)c1Br
0.014 | CCNC(=O)Nc1ccccc1CS(=O)(=O)N1CCC(Nc2cccc(-c3sc(C(=O)O)c(OCC(=O)O)c3Br)c2)CC1

The next lines start with the molecule.

SMILES | Ki [µM]
O=C(O)COc1c(C(=O)O)sc(-c2cccc(NCC3CCN(C(=O)Nc4ccccc4)CC3)c2)c1Br | 0.007
O=C(O)COc1c(C(=O)O)sc(-c2cccc(NC3CCN(S(=O)(=O)Cc4ccccc4Cl)CC3)c2)c1Br | 0.005
COc1ccccc1NC(=O)N1CCC(CNc2cccc(-c3sc(C(=O)O)c(OCC(=O)O)c3Br)c2)CC1 | 0.003
CC(C)NC(=O)Nc1cccc(-c2sc(C(=O)O)c(OCC(=O)O)c2Br)c1 | 2.1
O=C(O)COc1c(C(=O)O)sc(-c2cccc(NC3CCNCC3)c2)c1Br | 3.8
COC(=O)N1CCC(Nc2cccc(-c3sc(C(=O)O)c(OCC(=O)O)c3Br)c2)CC1 | 0.39
CS(=O)(=O)N1CCC(Nc2cccc(-c3sc(C(=O)O)c(OCC(=O)O)c3Br)c2)CC1 | 0.044
O=C(O)COc1c(C(=O)O)sc(-c2cccc(NC3CCN(S(=O)(=O)c4ccccc4)CC3)c2)c1Br | 0.055
O=C(O)COc1c(C(=O)O)sc(-c2cccc(NCC3CCN(C(=O)Nc4ccccc4Cl)CC3)c2)c1Br | 0.004
O=C(O)COc1cc(-c2cccc(NC3CCN(S(=O)(=O)Cc4ccccc4)CC3)c2)sc1C(=O)O | 2
O=C(O)COc1c(C(=O)O)sc(-c2cccc(NCC3CCN(S(=O)(=O)Cc4ccccc4)CC3)c2)c1Br | 0.074
Cc1ccccc1CS(=O)(=O)N1CCC(Nc2cccc(-c3sc(C(=O)O)c(OCC(=O)O)c3Br)c2)CC1 | 0.004
O=C(O)COc1c(C(=O)O)sc(-c2cccc(OCc3ccccc3)c2)c1Br | 0.68
O=C(O)COc1c(C(=O)O)sc(-c2cccc(NC3CCOCC3)c2)c1Br | 0.31
CC(=O)N1CCC(Nc2cccc(-c3sc(C(=O)O)c(OCC(=O)O)c3Br)c2)CC1 | 0.19
COc1cccc(-c2sc(C(=O)O)c(OCC(=O)O)c2Br)c1 | 4
O=C(O)COc1c(C(=O)O)sc(-c2cccc(NC(=O)c3ccccc3)c2)c1Br | 2.1
O=C(O)COc1c(C(=O)O)sc(-c2cccc(NS(=O)(=O)c3ccc(F)cc3)c2)c1Br | 0.44
Cc1ccccc1NC(=O)N1CCC(CNc2cccc(-c3sc(C(=O)O)c(OCC(=O)O)c3Br)c2)CC1 | 0.003
O=C(O)COc1c(C(=O)O)sc(-c2cccc(NCC3CCN(S(=O)(=O)c4ccccc4)CC3)c2)c1Br | 0.31

Target: T2, Receptor-type tyrosine-protein phosphatase C (Homo sapiens, UniProt P08575)
T2 sequence (P08575 whole entry): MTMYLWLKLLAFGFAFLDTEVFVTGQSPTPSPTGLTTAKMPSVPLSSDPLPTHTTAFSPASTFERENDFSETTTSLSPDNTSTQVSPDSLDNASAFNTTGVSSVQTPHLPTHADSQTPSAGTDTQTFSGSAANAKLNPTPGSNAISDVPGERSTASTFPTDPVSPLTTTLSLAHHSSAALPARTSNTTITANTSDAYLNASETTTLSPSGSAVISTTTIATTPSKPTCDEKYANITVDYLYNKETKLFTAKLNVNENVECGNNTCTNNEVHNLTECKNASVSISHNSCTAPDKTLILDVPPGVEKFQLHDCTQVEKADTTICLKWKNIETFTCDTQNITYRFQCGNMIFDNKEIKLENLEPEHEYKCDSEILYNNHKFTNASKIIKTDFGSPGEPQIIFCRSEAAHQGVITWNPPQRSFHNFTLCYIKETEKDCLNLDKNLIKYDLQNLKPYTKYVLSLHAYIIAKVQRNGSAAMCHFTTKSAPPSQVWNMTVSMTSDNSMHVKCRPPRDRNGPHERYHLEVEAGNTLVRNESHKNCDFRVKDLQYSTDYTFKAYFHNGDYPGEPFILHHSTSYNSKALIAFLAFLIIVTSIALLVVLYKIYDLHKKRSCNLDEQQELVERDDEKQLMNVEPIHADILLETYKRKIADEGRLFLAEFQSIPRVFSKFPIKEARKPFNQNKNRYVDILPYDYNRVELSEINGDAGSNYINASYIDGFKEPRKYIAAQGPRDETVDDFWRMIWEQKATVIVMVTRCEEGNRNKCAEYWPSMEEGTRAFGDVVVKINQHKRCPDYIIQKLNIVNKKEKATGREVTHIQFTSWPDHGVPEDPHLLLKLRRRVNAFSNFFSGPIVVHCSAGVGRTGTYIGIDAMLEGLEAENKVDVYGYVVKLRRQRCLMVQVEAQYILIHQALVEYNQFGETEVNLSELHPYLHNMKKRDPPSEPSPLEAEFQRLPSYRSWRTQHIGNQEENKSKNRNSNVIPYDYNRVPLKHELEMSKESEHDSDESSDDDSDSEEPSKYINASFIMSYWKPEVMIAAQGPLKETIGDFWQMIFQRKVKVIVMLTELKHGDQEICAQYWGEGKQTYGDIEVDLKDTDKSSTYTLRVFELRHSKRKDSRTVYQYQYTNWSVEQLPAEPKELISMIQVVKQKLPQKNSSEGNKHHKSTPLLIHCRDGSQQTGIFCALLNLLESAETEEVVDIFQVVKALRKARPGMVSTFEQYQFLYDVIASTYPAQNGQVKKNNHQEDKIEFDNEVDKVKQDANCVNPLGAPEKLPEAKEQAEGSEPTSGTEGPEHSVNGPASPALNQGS
Experiment: Inhibition of human recombinant CD45

Ki [µM] | SMILES
280 | O=C(O)COc1c(C(=O)O)sc(-c2ccccc2)c1Br
151 | CC1(C)CC(Nc2cccc(-c3sc(C(=O)O)c(OCC(=O)O)c3Br)c2)CC(C)(C)C1

Target: Receptor-type tyrosine-protein phosphatase F (Homo sapiens, UniProt P10586)
Sequence (P10586 whole entry): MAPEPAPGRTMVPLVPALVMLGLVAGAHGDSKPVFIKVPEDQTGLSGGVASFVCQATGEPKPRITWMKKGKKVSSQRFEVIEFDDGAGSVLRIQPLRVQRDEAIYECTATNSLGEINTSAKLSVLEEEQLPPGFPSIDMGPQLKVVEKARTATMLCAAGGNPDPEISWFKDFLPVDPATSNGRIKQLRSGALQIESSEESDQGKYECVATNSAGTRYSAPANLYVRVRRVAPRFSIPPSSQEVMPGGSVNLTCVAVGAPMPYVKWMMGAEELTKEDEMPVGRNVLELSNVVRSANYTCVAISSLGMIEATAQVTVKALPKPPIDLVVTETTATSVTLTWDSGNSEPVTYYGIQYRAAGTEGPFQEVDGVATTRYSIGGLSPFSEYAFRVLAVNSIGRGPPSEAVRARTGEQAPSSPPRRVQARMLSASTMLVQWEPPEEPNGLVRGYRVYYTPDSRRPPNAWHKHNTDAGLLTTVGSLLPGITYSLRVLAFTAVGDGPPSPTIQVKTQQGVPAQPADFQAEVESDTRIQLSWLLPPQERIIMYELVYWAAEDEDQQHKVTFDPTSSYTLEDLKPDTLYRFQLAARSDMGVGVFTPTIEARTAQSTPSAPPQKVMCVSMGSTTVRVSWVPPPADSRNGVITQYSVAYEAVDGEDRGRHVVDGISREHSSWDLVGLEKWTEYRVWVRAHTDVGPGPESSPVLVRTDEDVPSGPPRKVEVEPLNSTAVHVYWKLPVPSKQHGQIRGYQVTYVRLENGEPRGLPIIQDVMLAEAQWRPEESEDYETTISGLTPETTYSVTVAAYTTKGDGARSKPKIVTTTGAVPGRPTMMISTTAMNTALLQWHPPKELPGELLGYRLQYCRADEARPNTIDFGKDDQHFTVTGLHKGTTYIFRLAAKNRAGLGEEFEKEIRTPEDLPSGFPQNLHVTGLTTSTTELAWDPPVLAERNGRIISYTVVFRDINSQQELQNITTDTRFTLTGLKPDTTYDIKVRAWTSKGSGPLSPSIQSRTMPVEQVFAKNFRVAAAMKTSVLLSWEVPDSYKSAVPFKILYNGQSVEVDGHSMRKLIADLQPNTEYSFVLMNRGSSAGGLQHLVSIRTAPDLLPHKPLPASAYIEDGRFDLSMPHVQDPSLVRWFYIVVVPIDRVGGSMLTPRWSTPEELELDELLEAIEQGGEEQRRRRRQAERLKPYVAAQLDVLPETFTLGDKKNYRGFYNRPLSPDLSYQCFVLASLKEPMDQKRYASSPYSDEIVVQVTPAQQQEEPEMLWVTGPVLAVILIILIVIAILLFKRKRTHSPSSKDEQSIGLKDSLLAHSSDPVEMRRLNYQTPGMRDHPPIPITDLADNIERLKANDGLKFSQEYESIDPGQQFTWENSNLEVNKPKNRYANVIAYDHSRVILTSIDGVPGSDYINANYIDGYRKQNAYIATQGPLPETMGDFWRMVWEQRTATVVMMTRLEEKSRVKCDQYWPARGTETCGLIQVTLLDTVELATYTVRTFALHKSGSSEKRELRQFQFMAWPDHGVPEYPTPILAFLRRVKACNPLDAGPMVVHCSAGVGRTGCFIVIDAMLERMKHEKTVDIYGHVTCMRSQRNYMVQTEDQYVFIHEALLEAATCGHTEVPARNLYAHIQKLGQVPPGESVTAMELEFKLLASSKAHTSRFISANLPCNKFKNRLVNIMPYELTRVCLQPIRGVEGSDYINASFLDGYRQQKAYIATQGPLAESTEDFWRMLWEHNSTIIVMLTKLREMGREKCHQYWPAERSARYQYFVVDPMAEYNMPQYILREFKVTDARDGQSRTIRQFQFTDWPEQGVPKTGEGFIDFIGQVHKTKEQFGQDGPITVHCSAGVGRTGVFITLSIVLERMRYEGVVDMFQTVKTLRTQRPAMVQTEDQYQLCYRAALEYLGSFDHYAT
Experiment: Inhibition of human recombinant LAR

Ki [µM] | SMILES
> 500 | O=C(O)COc1c(C(=O)O)sc(-c2ccccc2)c1Br
> 1000 | CC1(C)CC(Nc2cccc(-c3sc(C(=O)O)c(OCC(=O)O)c3Br)c2)CC(C)(C)C1

— ChEMBL document CHEMBL1148776, “Structure-based optimization of protein tyrosine phosphatase 1B inhibitors: from the active site to the second phosphotyrosine binding site” (J Med Chem, 2007)
